In the NIST ThermoML archive (doi:10.1016/j.fluid.2009.07.010):

Key:
[1] = xn = mol fraction of the nth substance listed; settings: 298.15 K; for surface tension liquid-gas: Drop volume; for mass density: 101 kPa, Liquid, Vibrating tube method
[2] = for mass density: 298.1 K, 101.33 kPa, Liquid, Vibrating tube method; for surface tension liquid-gas: 298.15 K, Drop volume

CCn1cc[n+](C)c1.F[B-](F)(F)F [1-ethyl-3-methylimidazolium tetrafluoroborate] + O
[1]
Settings | mass density [kg/m3] | surface tension liquid-gas [mN/m]
x1 = 0.004 | 1005.5 | 67.38
x1 = 0.0077 | 1013.2 | 65
x1 = 0.0123 | 1021.8 | 62.87
x1 = 0.0132 | 1023.4 | 61.91
x1 = 0.0288 | 1046.4 | 58.15
x1 = 0.0483 | 1068.2 | 57.31
x1 = 0.0709 | 1088.6 | 55.92
x1 = 0.102 | 1111.7 | 55.24
x1 = 0.1418 | 1135.8 | 54.43
x1 = 0.2141 | 1169.1 | 53.8
x1 = 0.2191 | 1171 | –
x1 = 0.2894 | – | 54.15
x1 = 0.3118 | 1200.3 | –
x1 = 0.4011 | – | 54.01
x1 = 0.4551 | 1230 | –
x1 = 0.4987 | 1236.7 | –
x1 = 0.5074 | – | 53.88
x1 = 0.5923 | 1248.6 | –
x1 = 0.6018 | – | 53.73
x1 = 0.691 | 1258.5 | –
x1 = 0.7534 | – | 53.51
x1 = 0.7774 | 1265.5 | –
x1 = 0.9015 | – | 53.25
x1 = 1 | 1279.9 | 53.04

CCCCCCn1cc[n+](C)c1.F[B-](F)(F)F [1-hexyl-3-methylimidazolium tetrafluoroborate]
[2]
Settings | mass density [kg/m3] | surface tension liquid-gas [mN/m]
– | 1145.4 | 37.33

CCCCCCn1cc[n+](C)c1.F[B-](F)(F)F [1-hexyl-3-methylimidazolium tetrafluoroborate] + CCO
[1]
Settings | mass density [kg/m3] | surface tension liquid-gas [mN/m]
x1 = 0.098 | 893.9 | 23.11
x1 = 0.1998 | 964.6 | 24.21
x1 = 0.3 | 1011.9 | 25.62
x1 = 0.3991 | 1046.1 | 27.09
x1 = 0.5079 | 1073.7 | 28.82
x1 = 0.6123 | 1095.5 | 30.74
x1 = 0.702 | 1108.8 | 32.47
x1 = 0.803 | 1123.9 | 34.22
x1 = 0.9 | 1134.7 | 35.75
x1 = 1 | 1145.5 | 37.33

CCCCCCn1cc[n+](C)c1.F[B-](F)(F)F [1-hexyl-3-methylimidazolium tetrafluoroborate] + O
[1]
Settings | mass density [kg/m3] | surface tension liquid-gas [mN/m]
x1 = 0.3032 | 1115.8 | 37.93
x1 = 0.4059 | 1123.9 | 37.79
x1 = 0.5058 | 1129.2 | 37.65
x1 = 0.6061 | 1133.8 | 37.52
x1 = 0.7057 | 1137.4 | 37.4
x1 = 0.803 | 1140.3 | 37.35
x1 = 0.9002 | 1142.6 | 37.33
x1 = 1 | 1145.5 | 37.33

CCCCCCCC[n+]1ccn(C)c1.F[B-](F)(F)F [1-methyl-3-octylimidazolium tetrafluoroborate]
[2]
Settings | mass density [kg/m3] | surface tension liquid-gas [mN/m]
– | 1104.2 | 32.84

CCCCCCCC[n+]1ccn(C)c1.F[B-](F)(F)F [1-methyl-3-octylimidazolium tetrafluoroborate] + CCO
[1]
Settings | mass density [kg/m3] | surface tension liquid-gas [mN/m]
x1 = 0.1012 | 893 | 23.33
x1 = 0.2034 | 957.9 | 24.7
x1 = 0.3 | 996.6 | 25.99
x1 = 0.4096 | 1026.4 | 27.28
x1 = 0.5125 | 1047.8 | 27.9
x1 = 0.6156 | 1065.2 | 28.88
x1 = 0.7207 | 1079.3 | 29.9
x1 = 0.815 | 1088.8 | 30.86
x1 = 0.9014 | 1095.6 | 31.84
x1 = 1 | 1104.2 | 32.82

CCO [ethanol]
[2]
Settings | mass density [kg/m3] | surface tension liquid-gas [mN/m]
– | 785.8 | 22

CCO [ethanol] + CCn1cc[n+](C)c1.F[B-](F)(F)F
[1], x2 = 0
Settings | mass density [kg/m3] | surface tension liquid-gas [mN/m]
– | 785.8 | 52.81

O [water]
Settings | surface tension liquid-gas [mN/m]
[2] | 71.35

O [water] + CCCCn1cc[n+](C)c1.F[B-](F)(F)F
Settings | surface tension liquid-gas [mN/m]
[1], x2 = 0 | 71.35

O [water] + CCn1cc[n+](C)c1.F[B-](F)(F)F
Settings | surface tension liquid-gas [mN/m]
[1], x2 = 0 | 71.35
